According to patent publication US9724300B2, “Long-lasting, controlled-release local anesthetic liposome preparation” (Terumo Kabushiki Kaisha, priority 2012, dated 2017):
Structures can show the parent of a compound that is named as a salt.

Tested on: postoperative pain model of rats
Assay: Postoperative pain model of rats (foot sole pain model), von Frey filament test
Assay type: in vivo, male Wistar rats
Protocol: A pentobarbital sodium injection (Nembutal injection, made by Sumitomo Dainippon Pharma Co., Ltd.) (0.3 mL) was intraperitoneally administered to male Wistar rats for anesthesia. Thereafter, a skin incision was made with a No. 11 scalpel blade (made by FEATHER Safety Razor Co., Ltd.) longitudinally at a position of 5 mm from the heel of the left foot bottom. The plantaris muscle was taken out from the incision site, followed by longitudinal incision. Subsequently, the skin was subjected to a knotted suture with a 5-0 nylon thread by double stitches. Moreover, a […] was applied in a single layer thereonto so as not to permit the administered controlled-release preparation to leak. […] More particularly, using the von Frey hair set (commercial name: Touch-Test, made by North Coast Medical Inc.) requiring a given stress before bending, this was pressed against the operated site of rats vertically from beneath the mesh of a gauge wherein rats were accommodated, whereupon a stress (a withdrawal threshold against mechanical stimuli) was determined at the time when the rat raised paws in surprise. […] Using the postoperative pain model of rat set out above, the analgesic effect of the bupivacaine hydrochloride-containing, controlled-release preparation of Example 1 was evaluated according to the von Frey filament test. […]

SMILES | analgesic effect (increase of threshold value) (ropivacaine hydrochloride itself (stock solution), similar postoperative pain model of rat) | analgesic effect (increase of threshold value) (bupivacaine hydrochloride itself (stock solution), similar postoperative pain model of rats)
CCCN1CCCC[C@H]1C(=O)Nc1c(C)cccc1C [ropivacaine hydrochloride, Ropivacaine hydrochloride] | no analgesic effect was obtained even at the postoperative first day | –
CCCCN1CCCCC1C(=O)Nc1c(C)cccc1C (centres unmarked) [bupivacaine hydrochloride, Bupivacaine hydrochloride] | – | no analgesic effect was obtained even at the postoperative first day
